This passage reports IC50 results from ChEMBL document CHEMBL1146624, “Synthesis and evaluation of 4-anilino-6,7-dialkoxy-3-quinolinecarbonitriles as inhibitors of kinases of the Ras-MAPK signaling cascade” (Bioorg Med Chem Lett, 2003).

Experiment [1] has as its target T1, Dual specificity mitogen-activated protein kinase kinase 1 (Homo sapiens, UniProt Q02750).
The next experiment concerns Caco-2. The experiment in a line: cells. Particulars: Homo sapiens.
For experiment [2], the system named is LoVo. The experiment is described as follows: cells. The following applies: Homo sapiens.
For experiment [3], the target named is Serine/threonine-protein kinase AKT (Homo sapiens, UniProt P31751+Q9Y243+P31749). The experiment is described as follows: Inhibition of Akt phosphorylation in LoVo cells. Type of experiment: functional, cell-based.
The target in experiment [4] is T1, Dual specificity mitogen-activated protein kinase kinase 1. The experiment in a line: Inhibition of MEK1 phosphorylation in LoVo cells. Type of experiment: functional, cell-based.
Experiment [5] has as its system LoVo. The experiment in a line: Inhibition of tyrosine phosphorylation in LoVo cells. In kind it is functional, cell-based. Particulars: Homo sapiens.
Experiment [6] addresses Epidermal growth factor receptor (Homo sapiens, UniProt P00533).

T1 sequence (Q02750 whole entry): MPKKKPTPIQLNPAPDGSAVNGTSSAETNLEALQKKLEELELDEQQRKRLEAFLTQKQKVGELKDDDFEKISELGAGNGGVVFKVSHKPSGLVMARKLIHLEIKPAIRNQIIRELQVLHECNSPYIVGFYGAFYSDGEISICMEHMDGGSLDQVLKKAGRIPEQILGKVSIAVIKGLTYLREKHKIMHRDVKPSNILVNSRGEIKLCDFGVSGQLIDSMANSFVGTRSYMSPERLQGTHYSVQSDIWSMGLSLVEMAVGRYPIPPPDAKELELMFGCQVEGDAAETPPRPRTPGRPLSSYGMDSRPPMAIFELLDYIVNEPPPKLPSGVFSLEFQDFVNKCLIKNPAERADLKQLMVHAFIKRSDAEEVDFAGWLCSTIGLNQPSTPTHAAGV
Chain of Epidermal growth factor receptor (P00533 whole entry): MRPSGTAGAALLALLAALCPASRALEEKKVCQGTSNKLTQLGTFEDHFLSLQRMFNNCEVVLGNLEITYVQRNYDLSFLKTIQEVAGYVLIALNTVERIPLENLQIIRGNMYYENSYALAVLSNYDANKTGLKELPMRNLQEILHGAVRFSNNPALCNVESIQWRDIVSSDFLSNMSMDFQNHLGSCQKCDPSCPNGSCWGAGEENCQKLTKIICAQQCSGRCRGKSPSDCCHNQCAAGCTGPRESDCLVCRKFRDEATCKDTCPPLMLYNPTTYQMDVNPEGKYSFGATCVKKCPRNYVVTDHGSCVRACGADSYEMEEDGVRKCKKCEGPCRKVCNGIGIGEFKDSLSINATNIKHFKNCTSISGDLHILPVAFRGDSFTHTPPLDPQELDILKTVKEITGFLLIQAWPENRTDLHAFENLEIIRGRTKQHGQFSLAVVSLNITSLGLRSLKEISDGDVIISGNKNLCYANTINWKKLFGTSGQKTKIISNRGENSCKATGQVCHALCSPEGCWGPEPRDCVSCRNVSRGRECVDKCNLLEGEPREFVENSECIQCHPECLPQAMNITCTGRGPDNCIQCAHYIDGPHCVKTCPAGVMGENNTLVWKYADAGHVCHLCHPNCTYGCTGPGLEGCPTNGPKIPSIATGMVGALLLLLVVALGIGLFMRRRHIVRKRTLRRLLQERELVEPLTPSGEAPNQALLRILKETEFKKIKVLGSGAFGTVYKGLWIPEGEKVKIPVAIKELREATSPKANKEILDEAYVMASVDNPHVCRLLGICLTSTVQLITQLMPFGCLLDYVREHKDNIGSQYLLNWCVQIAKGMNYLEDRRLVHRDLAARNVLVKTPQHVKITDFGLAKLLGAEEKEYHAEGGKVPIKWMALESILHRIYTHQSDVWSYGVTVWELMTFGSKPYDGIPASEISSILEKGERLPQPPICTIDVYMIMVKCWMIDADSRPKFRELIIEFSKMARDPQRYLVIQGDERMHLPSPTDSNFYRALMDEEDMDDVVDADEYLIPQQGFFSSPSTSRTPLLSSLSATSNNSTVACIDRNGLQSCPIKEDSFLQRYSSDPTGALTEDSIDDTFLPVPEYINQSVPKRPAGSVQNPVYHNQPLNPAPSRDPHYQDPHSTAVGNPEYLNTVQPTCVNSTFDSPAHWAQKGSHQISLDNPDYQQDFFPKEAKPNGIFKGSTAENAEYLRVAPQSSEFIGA

Consider `COc1cc2c(Nc3ccc(Sc4nc(C)c(C)n4C)c(Cl)c3)c(C#N)cnc2cc1OCCCN1CCOCC1`, for which the results for the IC50 (in experiment [1]; in the experiment on Caco-2; in the experiment with LoVo [2]) were 2 nM, 900 nM and 342 nM, respectively.

With `COc1cc2c(Nc3ccc(Sc4nccs4)c(Cl)c3)c(C#N)cnc2cc1OCCCN1CCOCC1`, the IC50 (usually the concentration that gives 50% inhibition) in experiment [1] is 9 nM; in the experiment with Caco-2 it was 2700 nM; with LoVo [2] it was 56 nM.

On to `CCN1CCN(CCCOc2cc3ncc(C#N)c(Nc4ccc(Sc5nccn5C)c(Cl)c4)c3cc2OC)CC1`, for which the IC50 in the experiment with Caco-2 is above 1000 nM.

With `COc1cc2c(Nc3ccc(Sc4nccn4C)c(Br)c3)c(C#N)cnc2cc1OCCCN1CCOCC1`, the 50% inhibitory concentration (IC50) in experiment [1] turned out to be 2 nM; in the experiment on Caco-2, 5200 nM; with LoVo [2], 5 nM.

`COc1cc2c(Nc3ccc(Sc4nccn4C)c(Cl)c3)c(C#N)cnc2cc1OCCCN1CC[S+]([O-])CC1`: the IC50 was 2 nM in experiment [1], above 1000 nM in the experiment on Caco-2 and 36 nM with LoVo [2].

Take `COc1cc2c(Nc3ccc(Sc4ncc(C)n4C)c(Cl)c3)c(C#N)cnc2cc1OCCCN1CCOCC1`: the 50% inhibitory concentration (IC50) in experiment [1] is 1 nM; in the experiment on Caco-2 it was above 1000 nM; in the experiment on LoVo [2] it was 325 nM.

As to `COc1cc2c(Nc3ccc(Sc4ccccn4)c(Cl)c3)c(C#N)cnc2cc1OCCCN1CCOCC1`, the IC50 in experiment [1] is 8 nM; with Caco-2 it was above 1000 nM; with LoVo [2] it was 200 nM.

On to `COc1cc2c(Nc3ccc(Sc4nccn4C)c(Cl)c3)c(C#N)cnc2cc1OCCCN1CCOCC1`, for which the IC50 in experiment [3] is above 1000 nM; in experiment [4], 8 nM; in the experiment with LoVo [5] it was above 1000 nM; in experiment [6], above 1000 nM; in experiment [1] it was 2 nM; in the experiment with Caco-2, above 1000 nM. In the experiment with LoVo [2], this molecule displayed an IC50 of 5 nM.

Regarding `COc1cc2c(Nc3ccc(Cc4nccn4C)c(Cl)c3)c(C#N)cnc2cc1OCCCN1CCOCC1`, the figures for the IC50 (in experiment [1]; in the experiment with Caco-2; in the experiment on LoVo [2]) were 212 nM, 5500 nM and 380 nM, respectively.

As to `CCOc1cc2ncc(C#N)c(Nc3ccc(Sc4nccn4C)c(Cl)c3)c2cc1OCC`, the figures for the IC50 (in experiment [1]; in the experiment on Caco-2; with LoVo [2]) were 10 nM, above 1000 nM and 7 nM, respectively.

For `COc1cc2c(Nc3ccc(Sc4nccn4C)c(C)c3)c(C#N)cnc2cc1OCCCN1CCOCC1`, the IC50 with Caco-2 was 3200 nM; with LoVo [2], 36 nM.

Regarding `COc1cc2c(Nc3ccc(Sc4nccn4C)cc3)c(C#N)cnc2cc1OCCCN1CCOCC1`, the figures for the IC50 with Caco-2 and with LoVo [2] were 4700 nM and 43 nM, respectively.

`COc1cc2c(Nc3ccc(Sc4nccn4C)c(Cl)c3)c(C#N)cnc2cc1OCCCN1CCCC1`: the IC50 in experiment [1] is 4 nM; in the experiment with Caco-2, above 1000 nM; in the experiment with LoVo [2], 10 nM.

`COc1cc2c(Nc3ccc(Oc4ccccc4)cc3)c(C#N)cnc2cc1OCCCN1CCOCC1`: the IC50 in experiment [3] is above 1000 nM; in experiment [4], above 1000 nM; in the experiment on LoVo [5] it was above 1000 nM; in experiment [6], above 1000 nM; in experiment [1], 4 nM; with Caco-2, 5500 nM. In the experiment on LoVo [2], this molecule yielded a half-inhibitory concentration (IC50) of 400 nM.

`O=C(NOCC1CC1)c1ccc(F)c(F)c1Nc1ccc(I)cc1Cl` [CI-1040]: the IC50 in the experiment with Caco-2 was above 1000 nM; in the experiment with LoVo [2], 131 nM.
